Counter-ions that a name gives are not always drawn.
Assays:
Type in all cases: in vivo
[1] = system: glyphosate-sensitive Amaranthus palmeri; experiment: Herbicidal effect, foliar spray on potted weeds in greenhouse; details: rating 0 to 100, 14 days after foliar spray, 200 L/ha
Experimental: (§1) In a plastic pot filled with soli were seeded glyphosate-resistant Amaranthus palmeri in which the number of copies of EPSPS gene had been increased (produced by Azlin Seed Service) and glyphosate-sensitive Amaranthus palmeri (produced by Azlin Seed Service). The weeds were cultivated in a greenhouse for 18 days, and then an aqueous spray liquid [i.e., a liquid prepared by diluting a predetermined amount of a trifludimoxazin formulation (i.e., an emulsifiable concentrate prepared by mixing 20 parts of trifludimoxazin with 80 parts of a liquid cocktail (i.e., a mixture of 5 parts of cyclohexanone and 1 part of SORPOL 2680X (manufactured by TOHO Chemical Industry Co., Ltd.))) with water containing a spreading agent] was sprayed uniformly from above the weeds at the amount of 200 L/ha using a sprayer. Subsequently, the weeds were allowed to grow in a greenhouse for 14 days, and then the herbicidal effect was examined. As a reference example, the same procedure was carried out, except that the trifludimoxazin formulation was replaced with a predetermined amount of a glyphosate formulation (i.e., a soluble liquid containing 660 g/L of glyphosate potassium salt: “ROUNDUP MAXLOAD” (manufactured by Nissan Chemical Corporation). The results are shown in the table 1.

[2] = system: glyphosate-resistant Amaranthus palmeri in which the number of copies of EPSPS gene had been increased; experiment: as above; details: rating 0 to 100, 14 days after foliar spray, 200 L/ha
Experimental: as §1

[3] = system: glyphosate-resistant weeds (Amaranthus palmeri, waterhemp, kochia, marestail, Guernsey fleabane, fleabane, goosegrass, darnel) and volunteer …; experiment: Foliar treatment 21 days after seeding, greenhouse pot test (Example 2); details: foliar treatment at 6.25, 125, 25, 50, 100 or 150 g/ha; 200 L/ha; fourteen days after the treatment
Experimental: In a plastic pot filled with soil are seeded glyphosate-resistant Amaranthus palmeri in which the number of copies of EPSPS gene has been increased, glyphosate-resistant waterhemp in which the number of copies of EPSPS gene has been increased, glyphosate-resistant kochia in which the number of copies of EPSPS gene has been increased, marestail which is resistant to glyphosate by involving an ABC transporter, Guernsey fleabane which is resistant to glyphosate by involving an ABC transporter, fleabane which is resistant to glyphosate by involving an ABC transporter, glyphosate-resistant goosegrass having Thr102Ile, glyphosate-resistant goosegrass having Pro106Ser, glyphosate-resistant goosegrass having Pro106Ala, glyphosate-resistant goosegrass having Pro106Leu, glyphosate-resistant goosegrass having Thr102Ile and Pro106Ser, glyphosate-resistant darnel having Thr102Ile, glyphosate-resistant darnel having Pro106Ser, glyphosate-resistant darnel having Pro106Ala, glyphosate-resistant darnel having Pro106Leu, volunteer glyphosate-tolerant soybean, and volunteer glyphosate-tolerant cotton. The plants are cultivated in a greenhouse for 21 days, and then trifludimoxazin is applied to foliage of the plants at application rate of 6.25, […], 25, 50, 100 or 150 g/ha. The amount of a liquid sprayed is 200 L/ha. Subsequently, the plants are cultivated in a greenhouse.

[4] = system: glyphosate-resistant weeds (Amaranthus palmeri, waterhemp, kochia, marestail, Guernsey fleabane, fleabane, goosegrass, darnel) and volunteer …; experiment: Soil treatment on day of seeding, greenhouse pot test (Example 1); details: soil treatment at 6.25, 12.5, 25, 50, 100 or 150 g/ha; 200 L/ha; twenty-eight days after the treatment
Experimental: In a plastic pot filled with soil are seeded glyphosate-resistant Amaranthus palmeri in which the number of copies of EPSPS gene has been increased, glyphosate-resistant waterhemp in which the number of copies of EPSPS gene has been increased, glyphosate-resistant kochia in which the number of copies of EPSPS gene has been increased, marestail which is resistant to glyphosate by involving an ABC transporter, Guernsey fleabane which is resistant to glyphosate by involving an ABC transporter, fleabane which is resistant to glyphosate by involving an ABC transporter, glyphosate-resistant goosegrass having Thr102Ile, glyphosate-resistant goosegrass having Pro106Ser, glyphosate-resistant goosegrass having Pro106A1a, glyphosate-resistant goosegrass having Pro106Leu, glyphosate-resistant goosegrass having Thr102Ile and Pro106Ser, glyphosate-resistant darnel having Thr102Ile, glyphosate-resistant darnel having Pro106Ser, glyphosate-resistant darnel having Pro106Ala, glyphosate-resistant darnel having Pro106Leu, volunteer glyphosate-tolerant soybean, and volunteer glyphosate-tolerant cotton. On the same day, the soil is treated with trifludimoxazin at the application rate of 6.25, 12.5, 25, 50, 100 or 150 g/ha. The amount of a liquid sprayed is 200 L/ha. Subsequently, the plants are cultivated in a greenhouse.

Question: For `O=C(O)CNCP(=O)(O)O` [Glyphosate potassium salt, glyphosate potassium salt], which “Effect on glyphosate-sensitive Amaranthus palmeri” value ([1]; application rate 385 g/ha) is on record?
Answer: 100

Question: And the “Effect on glyphosate-sensitive Amaranthus palmeri” value ([1]; application rate 1540 g/ha)?
Answer: 100

Question: What about the “Effect on glyphosate-resistant Amaranthus palmeri” value ([2]; application rate 1540 g/ha) of the same compound?
Answer: 20

Question: What about the “Effect on glyphosate-resistant Amaranthus palmeri” value ([2]; application rate 6160 g/ha) of the same compound?
Answer: 70

Question: With `C#CCN1C(=O)C(F)(F)Oc2cc(F)c(-n3c(=O)n(C)c(=S)n(C)c3=O)cc21` [Trifludimoxazin, trifludimoxazin] as the compound, how does the “Effect on glyphosate-sensitive Amaranthus palmeri” value ([1]; application rate 6.25 g/ha) read?
Answer: 65

Question: What about the “Effect on glyphosate-sensitive Amaranthus palmeri” value ([1]; application rate 12.5 g/ha) of the same compound?
Answer: 70

Question: And the “Effect on glyphosate-sensitive Amaranthus palmeri” value ([1]; application rate 25 g/ha)?
Answer: 80

Question: And the “Effect on glyphosate-resistant Amaranthus palmeri” value ([2]; application rate 6.25 g/ha)?
Answer: 100

Question: And the “Effect on glyphosate-resistant Amaranthus palmeri” value ([2]; application rate 12.5 g/ha)?
Answer: 100

Question: What about the “Effect on glyphosate-resistant Amaranthus palmeri” value ([2]; application rate 25 g/ha) of the same compound?
Answer: 100

Question: And the “effect against the weeds” value [3]?
Answer: significant effect

Question: What about the “effect against the weeds” value [4] of the same compound?
Answer: significant effect

Source: patent publication US20220053764A1, “METHOD OF CONTROLLING WEEDS” (SUMITOMO CHEMICAL COMPANY, LIMITED, priority 2018, published 2022)
